Source: PubChem BioAssay (NCI)
Where “and” joins values, the source holds several entries; their conditions need not be identical. Equal values may be shown once.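 Compound exposure: 48 hours, 5 concentrations, 96-well plates. The concentration for 50% growth inhibition is given as GI50. TGI: total growth inhibition.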

Legend:
Assay in all cases: growth of human tumour cells (NCI), 48 h
[1] = tested on: ACHN renal
[2] = tested on: DMS 273 small cell lung
[3] = tested on: HCT-116 colon
[4] = tested on: NCI-H226 lung
[5] = tested on: NCI-H522 lung
[6] = tested on: OVCAR-4 ovarian
[7] = tested on: SF-539 CNS
[8] = tested on: SK-MEL-2 melanoma
[9] = tested on: SR leukemia
[10] = tested on: UACC-257 melanoma

| Structure (SMILES) | TGI [1] [µM] | TGI [2] [µM] | TGI [3] [µM] | TGI [4] | TGI [5] | TGI [6] [µM] | TGI [7] [µM] | TGI [8] [µM] | TGI [9] [µM] | TGI [10] [µM] | GI50 [2] [µM] | GI50 [4] | GI50 [7] | GI50 [10] | GI50 [1] [µM] | GI50 [3] [µM] | GI50 [5] [µM] | GI50 [6] [µM] | GI50 [8] [µM] | GI50 [9] [µM] |
| --- | --- | --- | --- | --- | --- | --- | --- | --- | --- | --- | --- | --- | --- | --- | --- | --- | --- | --- | --- | --- |
| COC(=O)N/N=C(\C)C(CN(C)C)C(c1ccccc1)c1c(O)c2ccccc2oc1=O (stereo unspecified) | > 100 | > 100 | > 100 | > 100 µM | > 100 µM | > 100 | > 100 | > 100 | > 100 | > 100 | – | – | – | – | – | – | – | – | – | – |
| O=c1[nH]c(=O)n(C2CC(O)C(CO)O2)cc1COCC(F)(F)F (stereo unspecified) | > 100 | > 100 | – | – | > 100 µM | > 100 | > 100 | > 100 | – | > 100 | – | – | – | – | – | – | – | – | – | – |
| C/C(CC(=O)Nc1ccc(NC(=O)C/C(C)=N\NC(N)=O)cc1)=N/NC(N)=O | > 100 | > 51.7 | > 100 | > 100 µM | > 100 µM | > 100 | > 100 | > 100 | > 62.5 | > 100 | – | – | – | – | – | – | – | – | – | – |
| O=C(NC(=O)c1cn(CCN2CCN(C(=O)NCCCCCCNC(=O)N3CCN(CCn4cc(C(=O)NC(=O)OCc5ccccc5)c(=O)[nH]c4=O)CC3)CC2)c(=O)[nH]c1=O)OCc1ccccc1 | > 100 | > 100 | > 100 | – | – | > 100 | > 100 | – | – | > 100 | – | – | – | – | – | – | – | – | – | – |
| COc1cccc2nc3c(C(=O)NCCN(C)C)cccc3nc12 | > 100 | > 100 | 37 | 20.2 µM | > 44.1 µM | 26.7 | 17.1 | 22.7 | > 37.9 | 27.1 | – | – | – | – | – | – | – | – | – | – |
| C/C(O)=C(\N=O)C(=O)NCc1ccccc1 | > 100 | > 100 | > 100 | > 100 µM | > 100 µM | – | > 100 | > 100 | > 100 | > 100 | – | – | – | – | – | – | – | – | – | – |
| COc1cc(C2c3cc4c(cc3[C@@H](N(C)c3ccc(N(C)C)cc3)C3COC(=O)C23)OCO4)cc(OC)c1O (stereo partly specified) | 18.8 | 19.5 | 14.8 | 0.625 µM | 0.553 µM | 29.4 | 0.638 | 16.9 | 44.2 | 18 | – | – | – | – | – | – | – | – | – | – |
| Cc1cc2c(cc1CO)N1Cc3cc(C)c(CO)cc3N(C2)C1 | – | > 100 | > 100 | > 100 µM | > 100 µM | > 100 | > 100 | – | – | – | – | – | – | – | – | – | – | – | – | – |
| CCOc1ccc(N=Cc2ccnc3ccccc23)cc1 | > 100 | > 87.5 | 54.3 | > 100 µM | > 94.8 µM | > 100 | 85.9 | > 85.3 | 6.76 | > 100 | – | – | – | – | – | – | – | – | – | – |
| CCn1c(=N)sc2nc3ccccc3n2c1=O | > 100 | – | > 100 | > 100 µM | > 100 µM | > 100 | > 100 | > 100 | > 100 | > 100 | – | – | – | – | – | – | – | – | – | – |
| COC(=O)CC(=O)NCC1=CCC(=O)CC1 | – | > 100 | > 100 | – | > 100 µM | > 100 | > 100 | > 100 | – | > 100 | – | – | – | – | – | – | – | – | – | – |
| Nc1ccccc1C(=O)NC(=O)Nc1ccc(Oc2ncc(Br)cn2)c(Cl)c1 | 30.8 | – | 12.1 | 1.49 µM | – | 10.2 | 0.0204 | 5.65 | 1.5 | 25.3 | 0.00485 | – | – | – | – | – | – | – | – | – |
| COC(=O)CC(C(C(C)=O)C(=O)OCc1ccccc1)N1C(=O)OC(c2ccccc2)C1c1ccccc1 (stereo unspecified) | > 100 | > 100 | > 100 | 80.7 µM and > 100 µM | 65.8 µM and > 100 µM | – | > 100 | > 100 | > 100 | > 100 | – | 12.2 µM and 77.5 µM | 24.1 µM and > 100 µM | 23.6 µM and 55.3 µM | – | – | – | – | – | – |
| CC(=O)OC1C(O[C@H]2CC[C@]34O[C@]35CC[C@]3(C)C(C6(C)CC[C@@H](C(C)(C)O)O6)[C@@H](O)CC3(C)[C@@H]5CC(OC3OC(CO)C(O)C(O)C3O)C4C2(C)C)OCC(O)C1O (stereo partly specified) | > 100 | > 61.2 | > 100 | > 100 µM | > 100 µM | > 100 | > 56.6 | > 100 | – | > 100 | – | – | – | – | – | – | – | – | – | – |
| CC1=C(C(=O)Nc2ccccc2)C(c2cc(Cl)cc(Cl)c2)C(C(=O)Nc2ccccc2)=C(C)N1 | 47.2 | 35 | 21.6 | 31.6 µM | 13.3 µM | 19.2 | 32.8 | 25.8 | 12.6 | 27.2 | – | – | – | – | – | – | – | – | – | – |
| N#C/C(=C\c1ccccc1)C(NO)Nc1ccccc1 (stereo unspecified) | > 100 | > 100 | > 100 | > 100 µM | > 100 µM | > 100 | > 100 | > 100 | > 100 | > 100 | – | – | – | – | – | – | – | – | – | – |
| COc1ccc(-c2n[nH]nc2-c2cc(OC)c3c(c2)OCO3)cc1 | > 100 | – | – | > 100 µM | – | > 100 | 0.0449 | 20.3 | 17.5 | > 100 | – | 0.83 µM | 0.0154 µM | 20.5 µM | 0.0648 | 0.017 | < 0.01 | 1.25 | 0.0184 | < 0.01 |
| CCc1nn2ncccc2c1-c1ccnc(NC2CC2)n1 | > 25 | – | > 25 | > 25 µM | > 25 µM | > 25 | > 25 | > 25 | > 25 | > 25 | – | 20.2 µM | > 25 µM | > 25 µM | > 25 | > 25 | > 25 | > 25 | > 25 | > 25 |
| NC(=S)N/N=C1/CN(c2ccc(Cl)c(Cl)c2)CC(=O)C1c1nc2ccccc2s1 (stereo unspecified) | > 100 | > 100 | > 100 | > 100 µM | > 100 µM | > 100 | > 100 | > 100 | – | > 100 | – | – | – | – | – | – | – | – | – | – |
| c1cc[c]([Sn]([O]c2cccc3cccnc23)([O]c2cccc3cccnc23)[c]2ccccc2)cc1 | 0.396 | 1.78 | 0.393 | – | – | 0.406 | 1.32 | – | – | – | 0.43 | – | 0.385 µM | – | 0.207 | 0.199 | – | 0.214 | – | – |
| CCN(CC)c1ccc(N=Nc2ccc(-c3nc4cccn(C)c-4n3)cc2)cc1 | – | 13.2 | 15.6 | 43.8 µM | 19.9 µM | 31.2 | 25.8 | 35.3 | 14.8 | 42.3 | – | – | – | – | – | – | – | – | – | – |
